Usually inhibition stands for the relative decrease from the control value, in per cent.

Results on eleven compounds are retold here after patent US11352338B2, “Substituted isoindolinones” (BioTheryX, Inc., priority 2018, dated 2022).

Test [1] concerns the target T1, PDE6D (Homo sapiens, UniProt O43924+Q96SW2).
T1 construct: endogenous in cells; host or cells: MV-4-11
Put plainly: Western blot, degradation of cellular PDE6D in MV-4-11 cells. Format: cell-based. Particulars: MV4-11; tested at 1 μM, MV-4-11 cells, 6-8 hours; read-out: % Degradation compared to DMSO, PDE6D. The protocol:
(§1) MV-4-11 cells were grown in RPMI 1640 media supplemented with 10% fetal bovine serum, streptomycin and penicillin.
(§2) Cells were cultured at approximately 10^6 cells per mL and incubated in DMSO or the indicated compounds for 6-8 hours. Whole cell extracts were prepared using RIPA lysis buffer according to manufacturer's protocol (Pierce). Briefly, 4×10^6 cells were washed once in PBS, the cell pellets were resuspended in RIPA lysis buffer and allowed to incubate for 15 minutes on ice. Cells debris was removed by centrifugation and the cleared whole cell lysates were transferred to new tubes for further analysis.
(§3) For Western blot analysis, whole cell protein extracts were separated on 4-12% SDS-polyacrylamide gels, transferred to nitrocellulose and probed with the indicated primary antibodies. Membranes were subsequently washed and probed with the appropriate IRDye secondary antibodies (LI-COR). The signal was detected using the Odyssey Imaging System (LI-COR).
(§4) The following antibodies were used in these studies: Anti-PDE6D antibody: Santa Cruz Biotechnology, sc-166854 (Dallas, Tex.); Anti-Ikaros: Abcam, ab191394 (Cambridge, Mass.); anti-CK1α antibody: Abcam, ab108296 (Cambridge, Mass.); β-Actin (8H10D10) mouse monoclonal antibody: Cell Signaling Technology, #3700 (Danvers, Mass.); IRDye 680RD Goat anti-rabbit antibody: LI-COR, 926-68071 (Lincoln, Nebr.); and IRDye 800CW Goat anti-mouse antibody: LI-COR, 926-32210 (Lincoln, Nebr.).
(§5) The % degradation values are reported as “A”, “B”, “C”, or “D.” “A” represents a % degradation value of less than 25% (value<25%); “B” represents a % degradation value of equal to or more than 25% and less than 50% (25%≤value<50%); “C” represents a % degradation value of equal to or more than 50% and less than 75% (50%≤value<75%); and “D” represents a % degradation value of equal to or more than 75% (value≥75%). […] was used as control.
A general note: Immunoblotting shows a protein as a band on a membrane.

The subject of test [2] is TNFα. Nature of the test: TNFα inhibition, LPS-induced PBMCs or CD14+ monocytes, Meso Scale assay. The test is classed as cell-based. Particulars: LPS 100 ng/mL 18-24 h, read-out: % Inhibition compared to DMSO, TNFα; for inhibition at 1 µM: tested at 1 μM; for inhibition at 10 µM: tested at 10 μM. The protocol: (§6) Either frozen primary blood mononuclear cells (PBMCs) or frozen CD14+ mobilized peripheral blood monocytes were purchased from AllCells (PB003F, Normal Peripheral Blood MNC (Alameda, Calif.)). Cells were quick thawed, washed 1-time with RPMI-1640 (10% FBS/1% Pen-Strep) and plated in 96 well plates at 200,000 cells per well. Cells were pretreated with DMSO only or with the indicated compound for 1 h and then induced with 100 ng/mL lipopolysaccharide (LPS) for 18-24 h. The supernatant was analyzed for IL-1β, IL-6, and TNFα, using Meso Scale assay according to manufacturer's protocol. The negative control wells were treated with DMSO.
(§7) IL-1β, IL-6 and TNFα activities were tested at two different concentrations (1 μM and 10 μM) and the results are shown in Tables 2 and 3 respectively.

Test [3] concerns IL-6. Nature of the test: IL-6 inhibition, LPS-induced PBMCs or CD14+ monocytes, Meso Scale assay. The note with it: LPS 100 ng/mL 18-24 h, read-out: % Inhibition compared to DMSO, IL-6; for inhibition at 1 µM: tested at 1 μM; for inhibition at 10 µM: tested at 10 μM. Format: cell-based. The protocol:
as §6, §7

For test [4], the system named is IL-1β. Nature of the test: IL-1β inhibition, LPS-induced PBMCs or CD14+ monocytes, Meso Scale assay. The test is classed as cell-based. The note with it: LPS 100 ng/mL 18-24 h, read-out: % Inhibition compared to DMSO, IL-1β; for inhibition at 1 µM: tested at 1 μM; for inhibition at 10 µM: tested at 10 μM. The protocol:
as §6, §7

In test [5] the target is T2, CK1α (Homo sapiens, UniProt P48729+Q96SW2).
T2 construct: endogenous in cells; host or cells: MV-4-11
T2 sequence (P48729 whole entry): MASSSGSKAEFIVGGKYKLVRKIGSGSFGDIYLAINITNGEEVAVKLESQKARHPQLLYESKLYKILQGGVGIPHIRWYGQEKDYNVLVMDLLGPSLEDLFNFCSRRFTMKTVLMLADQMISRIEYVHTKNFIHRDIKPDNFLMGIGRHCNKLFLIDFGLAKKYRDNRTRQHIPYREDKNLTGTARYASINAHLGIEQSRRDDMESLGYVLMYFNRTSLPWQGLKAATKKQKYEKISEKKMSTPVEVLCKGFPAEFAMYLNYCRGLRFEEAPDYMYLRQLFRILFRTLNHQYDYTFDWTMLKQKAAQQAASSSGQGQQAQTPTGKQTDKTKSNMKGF
T2 sequence (Q96SW2 whole entry): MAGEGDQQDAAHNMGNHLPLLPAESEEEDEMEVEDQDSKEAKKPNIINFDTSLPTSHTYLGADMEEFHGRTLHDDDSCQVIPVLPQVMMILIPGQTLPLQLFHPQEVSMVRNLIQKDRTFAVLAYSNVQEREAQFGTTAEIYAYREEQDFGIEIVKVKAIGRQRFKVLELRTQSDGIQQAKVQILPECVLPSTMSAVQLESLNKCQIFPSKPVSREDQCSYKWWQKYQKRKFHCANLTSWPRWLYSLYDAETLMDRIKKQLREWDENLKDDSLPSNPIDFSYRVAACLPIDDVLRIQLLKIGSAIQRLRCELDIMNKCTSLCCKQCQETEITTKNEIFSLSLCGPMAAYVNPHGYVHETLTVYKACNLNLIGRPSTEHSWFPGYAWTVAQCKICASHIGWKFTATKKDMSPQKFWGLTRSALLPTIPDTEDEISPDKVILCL
T2 sequence (Q16531 whole entry partner): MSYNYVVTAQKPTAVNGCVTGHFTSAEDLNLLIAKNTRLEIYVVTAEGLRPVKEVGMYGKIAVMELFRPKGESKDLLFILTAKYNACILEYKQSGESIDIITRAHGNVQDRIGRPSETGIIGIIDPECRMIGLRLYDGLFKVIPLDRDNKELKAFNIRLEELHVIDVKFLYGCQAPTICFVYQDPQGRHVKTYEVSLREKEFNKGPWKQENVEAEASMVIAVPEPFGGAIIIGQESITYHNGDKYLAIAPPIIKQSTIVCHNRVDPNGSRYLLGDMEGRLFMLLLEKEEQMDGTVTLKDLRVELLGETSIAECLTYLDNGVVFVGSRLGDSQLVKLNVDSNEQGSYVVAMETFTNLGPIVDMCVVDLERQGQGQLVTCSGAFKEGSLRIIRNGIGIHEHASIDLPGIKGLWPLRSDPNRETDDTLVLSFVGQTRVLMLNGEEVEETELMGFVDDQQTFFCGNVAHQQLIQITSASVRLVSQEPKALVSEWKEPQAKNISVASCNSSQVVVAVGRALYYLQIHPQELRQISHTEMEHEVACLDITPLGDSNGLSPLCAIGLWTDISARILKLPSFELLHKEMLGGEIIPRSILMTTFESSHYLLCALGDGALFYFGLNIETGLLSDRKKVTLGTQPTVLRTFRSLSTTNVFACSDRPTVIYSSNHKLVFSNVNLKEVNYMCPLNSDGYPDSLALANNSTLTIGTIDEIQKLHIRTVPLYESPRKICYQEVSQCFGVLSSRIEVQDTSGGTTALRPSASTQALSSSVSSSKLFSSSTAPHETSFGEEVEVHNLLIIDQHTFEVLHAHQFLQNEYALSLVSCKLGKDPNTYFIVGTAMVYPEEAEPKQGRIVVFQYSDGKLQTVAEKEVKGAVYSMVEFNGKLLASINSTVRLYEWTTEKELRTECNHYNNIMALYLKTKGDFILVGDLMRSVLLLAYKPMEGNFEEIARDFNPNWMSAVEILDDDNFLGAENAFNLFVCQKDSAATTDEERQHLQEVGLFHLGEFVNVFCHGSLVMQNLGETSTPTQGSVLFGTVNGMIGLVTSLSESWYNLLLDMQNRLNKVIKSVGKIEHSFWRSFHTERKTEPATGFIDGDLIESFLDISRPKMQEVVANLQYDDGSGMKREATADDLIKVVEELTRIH
Nature of the test: Western blot, degradation of cellular CK1α in MV-4-11 cells. The test is classed as cell-based. Particulars: MV4-11, tested at 1 μM, 6-8 hours, read-out: % Degradation compared to DMSO, CK1α. The procedure:
as §1, §2, §3, §4, §5

For test [6], the system named is IL-2. Put plainly: IL-2 inhibition assay, anti-CD3 (OKT3) stimulated PBMCs, Mesoscale IL-2 analysis. Format: cell-based, human. Particulars: Homo sapiens, PBMC, PBMCs on anti-CD3, 24 h, fold difference from DMSO control, read-out: IL-2, % Induction compared to DMSO. The protocol:
For the IL-2 analysis, 96 well plates were precoated with 1 μg/mL anti-human CD3 antibody (OKT3, eBioscience Inc., San Diego, Calif.). After washing with PBS, the indicated compound was added (50 μL/well) followed by PBMCs diluted at 3-4 million cells/mL (150 μL/well). Plates were incubated for 24 h and the supernatants collected for Mesoscale IL-2 analysis. IL-2 activity is measured as fold difference from the DMSO control. […]
In Table 4, the fold-change values are reported as “A”, “B”, “C”, or “D”. “A” represents a fold-change value of equal to or less than 0.5 (value≤0.5); “B” represents a fold-change value of more than 0.5 and equal to or less than 1 (0.5<value≤1); “C” represents a fold-change value of more than 1 and less than 1.5 (1<value<1.5); and “D” represents a fold-change value of equal to or more than 1.5 (value≥1.5).

In test [7] the target is T3, Ikaros (Homo sapiens, UniProt Q13422+Q96SW2).
T3 construct: endogenous in cells; host or cells: MV-4-11
T3 sequence (Q13422 whole entry): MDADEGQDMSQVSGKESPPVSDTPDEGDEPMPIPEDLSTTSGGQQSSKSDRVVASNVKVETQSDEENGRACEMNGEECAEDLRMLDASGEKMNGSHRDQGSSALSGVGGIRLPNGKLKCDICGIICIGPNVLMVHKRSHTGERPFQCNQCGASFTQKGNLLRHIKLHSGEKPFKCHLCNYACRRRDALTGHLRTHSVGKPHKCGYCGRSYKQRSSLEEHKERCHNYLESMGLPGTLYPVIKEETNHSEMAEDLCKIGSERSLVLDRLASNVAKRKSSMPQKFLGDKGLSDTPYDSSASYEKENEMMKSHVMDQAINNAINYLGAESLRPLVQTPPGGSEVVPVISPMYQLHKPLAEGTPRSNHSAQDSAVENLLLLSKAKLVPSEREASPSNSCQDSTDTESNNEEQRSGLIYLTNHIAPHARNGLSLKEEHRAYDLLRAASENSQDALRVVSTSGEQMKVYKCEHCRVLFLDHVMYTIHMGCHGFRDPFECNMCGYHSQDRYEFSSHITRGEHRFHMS
T3 sequence (Q96SW2 whole entry): as the sequence (Q96SW2 whole entry) above
T3 sequence (Q16531 whole entry partner): as the sequence (Q16531 whole entry partner) above
Put plainly: Western blot, degradation of cellular Ikaros in MV-4-11 cells. The test is classed as cell-based. Particulars: MV4-11, tested at 1 μM, 6-8 hours, read-out: % Degradation compared to DMSO, Ikaros. The protocol: as §1, §2, §3, §4, §5

T1 sequence (O43924 whole entry): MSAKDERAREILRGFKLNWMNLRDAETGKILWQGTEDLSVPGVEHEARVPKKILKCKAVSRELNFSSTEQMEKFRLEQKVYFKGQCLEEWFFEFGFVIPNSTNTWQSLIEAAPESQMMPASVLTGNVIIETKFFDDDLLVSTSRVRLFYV
T1 sequence (Q96SW2 whole entry): as the sequence (Q96SW2 whole entry) above
T1 sequence (Q16531 whole entry partner): as the sequence (Q16531 whole entry partner) above

Turning to `C[C@H](c1cccc2c1CN(C1CCC(=O)NC1=O)C2=O)C(F)(F)F` (stereo partly drawn) [Compound 31], the Dmax at 1 µM is below 25% in test [1], 25 to 50% in test [5] and 50 to 75% in test [7]. In addition, the inhibition at 1 µM in test [2], in test [3] and in test [4] was below 10% throughout. Moreover, the inhibition at 10 µM was 10 to 25% in test [2], below 10% in test [3] and below 10% in test [4]. In test [6], the fold induction at 1 µM was in the range of 0.5 to 1. Further, in test [6], the fold induction at 10 µM was 0.5 to 1.

Take `COc1cc2c(c(C3CCCC3)c1)CN(C1CCC(=O)NC1=O)C2=O` (stereo not drawn) [Compound 14]: the Dmax at 1 µM in test [1] was in the range of 25 to 50%; in test [5] it was 25 to 50%; in test [7] it was 50 to 75%. Moreover, the results for the inhibition at 1 µM in test [2], in test [3] and in test [4] were 10 to 25%, below 10% and below 10%, respectively. For the same compound, the inhibition at 10 µM in test [2] is 25 to 50%; in test [3] it was below 10%; in test [4] it was 10 to 25%. Besides, the fold induction at 1 µM in test [6] is 0.5 to 1. Further, in test [6], the fold induction at 10 µM lay within 0.5 to 1.

Regarding `Cc1c(F)cc2c(c1C1CCCC1)CN(C1CCC(=O)NC1=O)C2=O` (stereo not drawn) [Compound 21, 3-(4-Cyclopentyl-6-fluoro-5-methyl-1-oxoisoindolin-2-yl) piperidine-2,6-dione], the Dmax at 1 µM in test [1] is at least 75%; in test [5], 25 to 50%; in test [7], 25 to 50%. The inhibition at 1 µM in test [2], in test [3] and in test [4] was below 10% throughout. The inhibition at 10 µM in test [2] is 25 to 50%; in test [3] it was below 10%; in test [4], below 10%. The fold induction at 1 µM in test [6] is at most 0.5. Also, in test [6], the fold induction at 10 µM is at most 0.5.

As for `CC(C)c1cc(F)cc2c1CN(C1CCC(=O)NC1=O)C2=O` (stereo not drawn) [Compound 34, 3-(6-fluoro-4-isopropyl-1-oxoisoindolin-2-yl)piperidine-2,6-dione], the results for the Dmax at 1 µM in test [1], in test [5] and in test [7] were at least 75%, 50 to 75% and below 25%, respectively. The inhibition at 1 µM is 25 to 50% in test [2], below 10% in test [3] and below 10% in test [4]. Besides, the fold induction at 1 µM in test [6] is at most 0.5.

As to `C[C@@H](c1cccc2c1CN(C1CCC(=O)NC1=O)C2=O)C(F)(F)F` (stereo partly drawn) [Compound 30], the Dmax at 1 µM in test [1] is below 25%; in test [5], below 25%; in test [7], 25 to 50%. Also, the inhibition at 1 µM in test [2], in test [3] and in test [4] was below 10% in each case. Further, the inhibition at 10 µM was 10 to 25% in test [2], below 10% in test [3] and below 10% in test [4]. Besides, in test [6], the fold induction at 1 µM was in the range of 1 to 1.5. In addition, the fold induction at 10 µM in test [6] is 0.5 to 1.

As to `O=C1CCC(N2Cc3c(cc(Cl)cc3C3CCCC3)C2=O)C(=O)N1` (stereo not drawn) [Compound 28], the Dmax at 1 µM in test [1], in test [5] and in test [7] was below 25% each time. The values for the inhibition at 1 µM in test [2], in test [3] and in test [4] were 10 to 25%, below 10% and below 10%, respectively. Moreover, the inhibition at 10 µM in test [2] was 10 to 25%; in test [3] it was 10 to 25%; in test [4], below 10%. Further, in test [6], the fold induction at 1 µM lay in the range of 1 to 1.5. Moreover, the fold induction at 10 µM in test [6] lay in the range of 0.5 to 1.

As to `O=C1CCC(N2Cc3c(cc(F)cc3C3CCC3)C2=O)C(=O)N1` (stereo not drawn) [Compound 20], the values for the Dmax at 1 µM in test [1], in test [5] and in test [7] were at least 75%, 50 to 75% and 25 to 50%, respectively. Also, the results for the inhibition at 1 µM in test [2], in test [3] and in test [4] were 10 to 25%, below 10% and below 10%, respectively. Also, the figures for the inhibition at 10 µM in test [2], in test [3] and in test [4] were 25 to 50%, below 10% and below 10%, respectively. Also, the fold induction at 1 µM in test [6] was at most 0.5. For the same compound, in test [6], the fold induction at 10 µM was at most 0.5.

For the compound `O=C1CCC(N2Cc3c(cc(F)cc3C3CCC(F)(F)CC3)C2=O)C(=O)N1` (stereo not drawn) [Compound 11], the Dmax at 1 µM was at least 75% in test [1], 25 to 50% in test [5] and at least 75% in test [7]. Also, the inhibition at 1 µM in test [2], in test [3] and in test [4] was below 10% in each case. Besides, the inhibition at 10 µM in test [2], in test [3] and in test [4] was below 10% in each case. For the same compound, the fold induction at 1 µM in test [6] lay in the range of 0.5 to 1. For the same compound, in test [6], the fold induction at 10 µM lay in the range of 0.5 to 1.

Consider `O=C1CCC(N2Cc3c(cc(F)c(F)c3C3CCCC3)C2=O)C(=O)N1` (stereo not drawn) [Compound 16], for which the Dmax at 1 µM is at least 75% in test [1], 50 to 75% in test [5] and below 25% in test [7]. Besides, the inhibition at 1 µM in test [2], in test [3] and in test [4] was below 10% throughout. Moreover, the inhibition at 10 µM in test [2] was 10 to 25%; in test [3], below 10%; in test [4] it was below 10%. Moreover, the fold induction at 1 µM in test [6] was in the range of 0.5 to 1. In addition, the fold induction at 10 µM in test [6] was in the range of 0.5 to 1.

For `CC1(C)CC=C(c2cc(F)cc3c2CN(C2CCC(=O)NC2=O)C3=O)CC1` (stereo not drawn) [Compound 8], the Dmax at 1 µM in test [1], in test [5] and in test [7] was below 25% throughout. Also, the results for the inhibition at 1 µM in test [2], in test [3] and in test [4] were 10 to 25%, 10 to 25% and below 10%, respectively. The values for the inhibition at 10 µM in test [2], in test [3] and in test [4] were 25 to 50%, 10 to 25% and below 10%, respectively. The fold induction at 1 µM in test [6] lay within 0.5 to 1. Besides, in test [6], the fold induction at 10 µM was in the range of 0.5 to 1.

For the compound `CC1(C)CCCC1c1cc(F)cc2c1CN(C1CCC(=O)NC1=O)C2=O` (stereo not drawn) [Compound 26], the Dmax at 1 µM in test [1] was 50 to 75%; in test [5] it was below 25%; in test [7] it was 25 to 50%. The inhibition at 1 µM in test [2], in test [3] and in test [4] was below 10% in each case. Moreover, the inhibition at 10 µM in test [2] was 10 to 25%; in test [3], below 10%; in test [4], below 10%. In addition, in test [6], the fold induction at 1 µM lay within 0.5 to 1. Besides, the fold induction at 10 µM in test [6] lay within 0.5 to 1.
